Measurements taken from ChEMBL document CHEMBL4732167, “Structure based design, synthesis, and biological evaluation of imidazole derivatives targeting dihydropteroate synthase enzyme” (Bioorg Med Chem Lett, 2021).
Converted amounts (≈) assume the structure as drawn.

test system: Staphylococcus aureus; assay: Antibacterial activity against Staphylococcus aureus MTCC 96 assessed as bacterial growth inhibition; type: functional

Row | Molecule | MIC [µg/mL]
1 | CCn1cc(C(=O)O)c(=O)c2cc(F)c(N3CCNCC3)cc21 [NORFLOXACIN] | 10 (≈ 31.3 µM)

test system: Escherichia coli; assay: Antibacterial activity against Escherichia coli MTCC 443 assessed as bacterial growth inhibition; type: functional

Row | Molecule | MIC [µg/mL]
2 | CCn1cc(C(=O)O)c(=O)c2cc(F)c(N3CCNCC3)cc21 [NORFLOXACIN] | 10 (≈ 31.3 µM)

test system: Pseudomonas aeruginosa; assay: Antibacterial activity against Pseudomonas aeruginosa MTCC 1688 assessed as bacterial growth inhibition; type: functional

Row | Molecule | MIC [µg/mL]
3 | CCn1cc(C(=O)O)c(=O)c2cc(F)c(N3CCNCC3)cc21 [NORFLOXACIN] | 10 (≈ 31.3 µM)

test system: Aspergillus niger; assay: Antifungal activity against Aspergillus niger MTCC 282 assessed as fungal growth inhibition; type: functional

Row | Molecule | MFC [µg/mL]
4 | COC1=CC(=O)C[C@@H](C)[C@]12Oc1c(Cl)c(OC)cc(OC)c1C2=O [GRISEOFULVIN] | 100 (≈ 283 µM)
5 | NYSTATIN | 100

test system: Candida albicans; assay: Antifungal activity against Candida albicans MTCC 227 assessed as fungal growth inhibition; type: functional

Row | Molecule | MFC [µg/mL]
6 | COC1=CC(=O)C[C@@H](C)[C@]12Oc1c(Cl)c(OC)cc(OC)c1C2=O [GRISEOFULVIN] | 500 (≈ 1420 µM)
7 | NYSTATIN | 100

test system: Streptococcus pyogenes; assay: Antibacterial activity against Streptococcus pyogenes MTCC 442 assessed as bacterial growth inhibition; type: functional

Row | Molecule | MIC [µg/mL]
8 | CCn1cc(C(=O)O)c(=O)c2cc(F)c(N3CCNCC3)cc21 [NORFLOXACIN] | 10 (≈ 31.3 µM)

test system: Aspergillus clavatus; assay: Antifungal activity against Aspergillus clavatus MTCC 1323 assessed as fungal growth inhibition; type: functional

Row | Molecule | MFC [µg/mL]
9 | COC1=CC(=O)C[C@@H](C)[C@]12Oc1c(Cl)c(OC)cc(OC)c1C2=O [GRISEOFULVIN] | 100 (≈ 283 µM)
10 | NYSTATIN | 100

test system: Mycobacterium tuberculosis; assay: Antibacterial activity against Mycobacterium tuberculosis H37Rv assessed as bacterial growth inhibition; type: functional

Row | Molecule | MIC [µg/mL]
11 | NNC(=O)c1ccncc1 [ISONIAZID] | 0.2 (≈ 1.46 µM)

test system: Plasmodium falciparum; assay: Antimalarial activity against Plasmodium falciparum assessed as parasite growth inhibition; type: functional, organism-based

Row | Molecule | IC50 [µg/mL]
12 | C=C[C@H]1CN2CC[C@H]1C[C@H]2[C@H](O)c1ccnc2ccc(OC)cc12 [QUININE] | 0.268 (≈ 0.826 µM)
